From patent US6569875B1, “Fungicide mixtures based on pyridin carboxamides and benzimidazoles or the precursors thereof” (priority 1997, dated 2003)

Test system: Botrytis cinerea
Assay: Activity against Botrytis cinerea on bell pepper leaves (sprayed green bell pepper fruit disks, protective)
Assay type: in vivo
Details: single active ingredient, 4 ppm in the spray liquor, inoculated 2 hours after spray coating dried, 18° C., 4 days, visual evaluation
Procedure: The active ingredients, separately or together, are formulated as a 10% emulsion in a mixture of 63% by weight of cyclohexanone and 27% by eight of emulsifier, and diluted with water to the desired concentration.
Evaluation is carried out by determining the infected leaf areas in percent. These percentages are converted into efficacies. The efficacy (W) is calculated as follows using Abbot's formula: […]
α corresponds to the fungal infection of the treated plants in % and β corresponds to the fungal infection of the untreated (control) plants in % An efficacy of 0 means that the infection level of the treated plants corresponds to that of the untreated control plants; an efficacy of 100 means that the treated plants were not infected.
The expected efficacies of the mixtures of the active ingredients were determined using Colby's formula [R. S. Colby, Weeds 15, 20-22 (1967)] and compared with the observed efficacies.
Colby formula: E=x+Y−x·y/100
E expected efficacy, expressed in % of the untreated control, when using the mixture of the active ingredients A and B at the concentrations a and b x efficacy, expressed in % of the untreated control, when using active ingredient A at the concentration a y efficacy, expressed in % of the untreated control, when using active ingredient B at the concentration b Disks of green bell peppers were sprayed to runoff point with an aqueous preparation of active ingredient which had been prepared from a stock solution comprising 10% of active ingredient, 63% of cyclohexanone and 27% of emulsifier. 2 hours after the spray coating had dried on, the fruit disks were inoculated with a spore suspension of Botrytis cinerea containing 1.7×10^6 spores per ml of a 2% strength Biomalz solution. The inoculated fruit disks were subsequently incubated in humid chambers at 18° C. for 4 days. The Botyrtis infection on the diseased fruit disks was then evaluated visually.

SMILES | Efficacy in % of the untreated control [%]
O=C(Nc1ccccc1-c1ccc(F)cc1)c1cccnc1Cl [Compound I.1] | 0
O=C(Nc1ccccc1-c1ccc(Cl)cc1)c1cccnc1Cl [Compound I.2] | 40
CCCCNC(=O)n1c(NC(=O)OC)nc2ccccc21 [Compound II.a, methyl 1-(butylcarbamoyl)benzimidazol-2-ylcarbamate] | 10
COC(=O)NC(=S)Nc1ccccc1NC(=S)NC(=O)OC [Compound II.f, dimethyl 4,4′-(o-phenylene)-bis(3-thioallophanate)] | 10
